In ChEMBL document CHEMBL1275325, “QSAR guided synthesis of simplified antiplasmodial analogs of naphthylisoquinoline alkaloids” (Eur J Med Chem, 2010):

Assays:
Trypanosoma cruzi = assay: Antitrypanosomal activity against clone C4 Trypanosoma cruzi Tulahuen expressing LacZ; format: functional, organism-based
[1] = tested on: Trypanosoma brucei rhodesiense; assay: Antitrypanosomal activity against Trypanosoma brucei rhodesiense STIB900; format: functional, organism-based
[2] = tested on: Trypanosoma brucei brucei; assay: Antitrypanosomal activity against Trypanosoma brucei brucei; format: functional, organism-based
Leishmania donovani = assay: Antileishmanial activity against axenic amastigotes of Leishmania donovani; format: functional, organism-based
Leishmania major = assay: Antileishmanial activity against promastigotes of Leishmania major; format: functional, organism-based
Plasmodium falciparum = assay: Antiplasmodial activity against Plasmodium falciparum K1; format: functional, organism-based
L6 = assay: Cytotoxicity against rat L6 cells; format: cell-based
[3] = Selectivity index, ratio of IC50 for rat L6 cells to IC50 for Plasmodium falciparum K1; format: toxicity, cell-based; conditions: read-out: Ratio IC50
[4] = Trypanosoma cruzi, Tulahuen, read-out: IC50
[5] = Trypanosoma brucei, STIB900, read-out: IC50
[6] = Leishmania donovani, read-out: IC50
[7] = Trypanosoma brucei, read-out: IC50
[8] = Leishmania major, read-out: IC50

SMILES	IC50 (Trypanosoma cruzi; [4])	IC50 [1, 5]	IC50 [2]	IC50 (Leishmania donovani; [6])	IC50 (Leishmania major)	IC50 (Plasmodium falciparum)	IC50 (Trypanosoma cruzi)	IC50 [1]	IC50 [2, 7]	IC50 (Leishmania donovani)	IC50 (Leishmania major; [8])	IC50 (L6)	selectivity ratio [3]
COc1ccc(-c2cccc3ccccc23)c2c1C(C)=N[C@H](C)C2	15.9 µM	3.96 µM	Not Active	14.4 µM	Not Active	6.91 µM	–	–	–	–	–	34.9 µM	–
Oc1ccc(Br)c2c1C=NCC2	–	–	Not Active	–	Not Active	1.24 µM	Not Active	Not Active	–	Not Active	–	> 100 µM	–
CC1=N[C@H](C)Cc2c(-c3cccc(Cl)c3)ccc(O)c21	13.9 µM	7.63 µM	–	24.7 µM	–	0.856 µM	–	–	27.1 µM	–	52.4 µM	50.8 µM	–
COc1ccc(-c2ccc3ccccc3c2)c2c1C(C)=N[C@H](C)C2	20.9 µM	4.44 µM	–	21.2 µM	–	1.18 µM	–	–	10.1 µM	–	28.1 µM	72 µM	–
COc1ccc(-c2ccc(C(F)(F)F)cc2)c2c1C(C)=N[C@H](C)C2	> 100 µM	7.38 µM	–	18.3 µM	–	3 µM	–	–	10.4 µM	–	> 100 µM	> 100 µM	–
COc1ccc(Br)c2c1C(C)=N[C@H](C)C2	> 100 µM	> 100 µM	Not Active	> 100 µM	Not Active	> 18.9 µM	–	–	–	–	–	> 100 µM	–
CC1=N[C@H](C)Cc2c(-c3ccc(O)cc3)ccc(O)c21	> 100 µM	53.5 µM	Not Active	> 100 µM	Not Active	9.91 µM	–	–	–	–	–	> 100 µM	–
COc1ccc(-c2ccc(C)cc2)c2c1C(C)=N[C@H](C)C2	19.3 µM	5.83 µM	–	35.5 µM	–	2.49 µM	–	–	20.2 µM	–	> 83 µM	> 100 µM	–
COc1ccc(-c2ccc(OC)c3ccccc23)c2c1C=NC(C)(C)C2	–	–	–	1.95 µM	–	2.4 µM	Not Active	Not Active	30.4 µM	–	37.2 µM	43.8 µM	–
COc1cccc2c(-c3ccc(O)c4c3CCN=C4)ccc(O)c12	–	–	Not Active	–	Not Active	1.99 µM	Not Active	Not Active	–	Not Active	–	98.2 µM	–
COc1ccc(-c2ccc(Cl)cc2)c2c1C(C)=N[C@H](C)C2	15 µM	7.81 µM	Not Active	15.9 µM	Not Active	6.44 µM	–	–	–	–	–	56.7 µM	–
COc1ccc(-c2ccc(OC)c3ccccc23)c2c1C=NCC2	10.9 µM	–	–	–	–	1.7 µM	–	Not Active	26.3 µM	Not Active	46.3 µM	34.3 µM	–
N=C(N)c1ccc(OCCCCCOc2ccc(C(=N)N)cc2)cc1 [PENTAMIDINE]	–	–	–	–	–	–	–	–	0.003 µM	–	–	–	–
O=C(Cn1ccnc1[N+](=O)[O-])NCc1ccccc1 [BENZNIDAZOLE]	1.98 µM	–	–	–	–	–	–	–	–	–	–	–	–
COc1cccc2c(-c3ccc(O)c4c3CC(C)(C)N=C4)ccc(O)c12	–	–	–	–	–	1.7 µM	Not Active	Not Active	34.1 µM	Not Active	> 100 µM	> 100 µM	–
COc1ccc(-c2ccccc2)c2c1C(C)=N[C@H](C)C2	46.7 µM	6.48 µM	–	74.9 µM	–	1.88 µM	–	–	14.8 µM	–	> 100 µM	58.8 µM	–
Nc1nc(N)nc(Nc2ccc([As]3SCC(CO)S3)cc2)n1 (centres undefined) [MELARSOPROL]	–	0.007 µM	–	–	–	–	–	–	–	–	–	–	–
C[C@@H]1[C@H](O)[C@@H](C)/C=C/C=C/C=C/C=C/C=C/C=C/C=C/[C@H](O[C@@H]2O[C@H](C)[C@@H](O)[C@H](N)[C@@H]2O)C[C@@H]2O[C@](O)(C[C@@H](O)C[C@@H](O)[C@H](O)CC[C@@H](O)C[C@@H](O)CC(=O)O[C@H]1C)C[C@H](O)[C@H]2C(=O)O [AMPHOTERICIN B]	–	–	–	–	–	–	–	–	–	–	2.51 µM	–	–
Oc1ccc(-c2ccc(O)c3ccccc23)c2c1C=NCC2	–	–	Not Active	–	Not Active	3.49 µM	Not Active	Not Active	–	Not Active	–	94.2 µM	–
COc1ccc(-c2cccc(Cl)c2)c2c1C(C)=N[C@H](C)C2	14 µM	1.18 µM	Not Active	13 µM	Not Active	7.96 µM	–	–	–	–	–	38.4 µM	–
COc1ccc(-c2ccc(O)cc2)c2c1C(C)=N[C@H](C)C2	25.5 µM	4.77 µM	Not Active	21.4 µM	Not Active	10.8 µM	–	–	–	–	–	> 100 µM	–

The next lines start with results.

IC50 (Trypanosoma cruzi; [4])	IC50 [1, 5]	IC50 [2]	IC50 (Leishmania donovani; [6])	IC50 (Leishmania major)	IC50 (Plasmodium falciparum)	IC50 (Trypanosoma cruzi)	IC50 [1]	IC50 [2, 7]	IC50 (Leishmania donovani)	IC50 (Leishmania major; [8])	SMILES	IC50 (L6)	selectivity ratio [3]
–	–	–	–	–	0.708 µM	Not Active	Not Active	> 100 µM	Not Active	> 100 µM	CC1(C)Cc2c(Br)ccc(O)c2C=N1	> 100 µM	> 141
–	–	Not Active	–	Not Active	0.119 µM	Not Active	Not Active	–	Not Active	–	COc1cccc2c(-c3ccc(O)c4c3CCN=C4)ccc(OC(C)C)c12	27 µM	227
–	2.48 µM	Not Active	–	Not Active	0.264 µM	Not Active	–	–	Not Active	–	COc1cccc2c(-c3ccc(O)c4c3CCNC4)ccc(O)c12	40.2 µM	152
57.1 µM	4.74 µM	–	> 100 µM	–	0.82 µM	–	–	13.4 µM	–	> 100 µM	CC1=N[C@H](C)Cc2c(-c3ccccc3)ccc(O)c21	52.2 µM	–
16.7 µM	1.01 µM	–	38.2 µM	–	0.476 µM	–	–	25.4 µM	–	34.7 µM	CC1=N[C@H](C)Cc2c(-c3ccc4ccccc4c3)ccc(O)c21	72.5 µM	152
15.8 µM	11.1 µM	–	27.1 µM	–	0.763 µM	–	–	2.74 µM	–	13.4 µM	CC1=N[C@H](C)Cc2c(-c3cccc4ccccc34)ccc(O)c21	57.1 µM	–
–	–	Not Active	–	Not Active	0.138 µM	Not Active	Not Active	–	Not Active	–	COc1cccc2c(-c3ccc(O)c4c3CC(C)(C)N=C4)ccc(OC(C)C)c12	> 100 µM	> 725
–	–	–	–	–	0.532 µM	Not Active	Not Active	> 40 µM	Not Active	> 100 µM	CC1=N[C@H](C)Cc2c(-c3ccc(Cl)cc3)ccc(O)c21	> 100 µM	> 188
–	2.92 µM	Not Active	–	Not Active	0.223 µM	Not Active	–	–	Not Active	–	COc1cccc2c(-c3ccc(O)c4c3CC(C)(C)NC4)ccc(O)c12	37.5 µM	168
19.2 µM	14.8 µM	–	35.1 µM	–	0.46 µM	–	–	15.9 µM	–	> 100 µM	CC1=N[C@H](C)Cc2c(-c3ccc(C(F)(F)F)cc3)ccc(O)c21	96.8 µM	210
39.3 µM	7.12 µM	–	52 µM	–	0.437 µM	–	–	32 µM	–	> 86 µM	CC1=N[C@H](C)Cc2c(-c3ccc(C)cc3)ccc(O)c21	> 100 µM	> 229
